Results published in patent publication US4835160A, “Derivatives of pyridoindole, having anti-tumor properties” (Sanofi, priority 1986, dated 1989).

Experiments:
leukemia P388 = test: Test for leukemia P388, IP/IP, D1; format: in vivo, CDF1 hybrid mice; conditions: for Number of survivors: day D30; for T/C %: survival time
How it was run: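 CDF1 hybrid mice inoculated i.p. on D0 with 10^6 P388 leukemia cells; compound in distilled water given i.p. once on D1, 10 mice per group. Activity as increase in survival time versus untreated controls (T/C); survivors counted on D30. 5-fluorouracil positive control under same conditions.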

in vivo [1] = test: in vivo; set-up: species or system CDF1 hybrid mice; conditions: mouse, ip, 25 mg/kg
From the text: The compounds of the invention benefit from a good tolerance and a weak toxicity.
Thus the administration, to healthy CDF1 hybrid mice, in a single injection by intraperitoneal route, of the compounds under test, has enabled it to be established that the product is perfectly tolerated at a high dosage since the survival rate of the animals of the experiment was 100 out of 100 thirteen days after administration.

in vivo [2] = test: in vivo; set-up: species or system female CDF1 hybrid mice; conditions: mouse, iv, 50 mg/kg
Method: In addition the administration, to healthy female CDF1 hybrid mice, in a single injection by intravenous route with a perfusor, lasting 4 minutes, of the compounds under test in solution in physiological serum at a rate of 0.1 ml of solution per 10 g weight of the animals has enabled it to be established that the compounds are also well tolerated at a high dosage in these conditions.

leukemia P 388 = test: Test of leukemia P 388; IP/IP, D1-5; format: in vivo, CDF1 hybrid mice; conditions: D1-D5; for Number of survivors: day D30; for T/C %: survival time
How it was run: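 CDF1 hybrid mice received 10^6 P 388 cells intraperitoneally, then compound in distilled water by intraperitoneal route daily D1-D5, 10 mice per group, 5-fluorouracil as positive control. Activity judged as T/C survival time versus untreated controls, survivors counted at D30; T/C ≤85% or day 5 minus day 1 weight change ≤ −4 g counted as toxic.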

melanoma B 16 = test: Test for melanoma B 16; format: in vivo, BDF1 hybrid mice; conditions: D1-D9; for Number of survivors: day D60; for T/C %: survival time
How it was run: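 BDF1 mice inoculated i.p. with 0.5 ml B16 melanoma homogenate (1 g tumour in 10 ml physiological serum); compound given i.p. daily D1–D9, Cis-platine positive control under same conditions. Surviving animals counted on D60; activity as survival increase vs untreated controls (T/C), toxicity if T/C ≤85%.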

In the case of `Cc1cnc(NCCCN(C)C)c2c3cc(O)ccc3n(C)c12` [Derivative No. 14, 4,5-dimethyl 1(3-dimethylaminopropylamino)-8-hydroxy-5H-pyrido[4,3-b]indole], the “Median day of survival” value (leukemia P388; 5 mg/kg IP) is reported as 19.75 days, the “Variation by weight” value (leukemia P388; 5 mg/kg IP) is reported as -1.2 g and the Number of survivors (leukemia P388; 5 mg/kg IP) is reported as 0/10. The T/C % (leukemia P388; 5 mg/kg IP) was 173%, the “Median day of survival” value (leukemia P388; 10 mg/kg IP) was 19.0 days and the “Variation by weight” value (leukemia P388; 10 mg/kg IP) was -1.4 g. The Number of survivors (leukemia P388; 10 mg/kg IP) was 1/10, the T/C % (leukemia P388; 10 mg/kg IP) was 167% and the “Median day of survival” value (leukemia P388; 20 mg/kg IP) was 18.75 days. For the same compound, the “Variation by weight” value (leukemia P388; 20 mg/kg IP) was -2.5 g, the Number of survivors (leukemia P388; 20 mg/kg IP) was 1/10 and the T/C % (leukemia P388; 20 mg/kg IP) was 164%. The survival at 312 h (in vivo [1]) was 100%, the survival at 192 h (in vivo [2]) was 100% and the “Median day of survival” value (leukemia P 388; 2.5 mg/kg IP) was 19.25 days. The “Variation by weight (g)” value (leukemia P 388; 2.5 mg/kg IP) was “+0.9 g”, the Number of survivors (leukemia P 388; 2.5 mg/kg IP) was 1/10 and the T/C % (leukemia P 388; 2.5 mg/kg IP) was 166%. For the same compound, the “Median day of survival” value (leukemia P 388; 5 mg/kg IP) was 22 days, the “Variation by weight” value (leukemia P 388; 5 mg/kg IP) was -1.0 g and the Number of survivors (leukemia P 388; 5 mg/kg IP) was 3/10. The T/C % (leukemia P 388; 5 mg/kg IP) was 190%, the “Median day of survival” value (leukemia P 388; 10 mg/kg IP) was 11.75 days and the “Variation by weight” value (leukemia P 388; 10 mg/kg IP) was -1.7 g. For the same compound, the Number of survivors (leukemia P 388; 10 mg/kg IP) was 0/10, the T/C % (leukemia P 388; 10 mg/kg IP) was 102% and the “Median day of survival” value (leukemia P 388; 20 mg/kg IP) was 7.4 days. For the same compound, the “Variation by weight” value (leukemia P 388; 20 mg/kg IP) was -4.4 g, the Number of survivors (leukemia P 388; 20 mg/kg IP) was 0/10 and the T/C % (leukemia P 388; 20 mg/kg IP) was 64%. For the same compound, the “Median day of survival” value (melanoma B 16; 1.25 mg/kg IP) was 29.75 days, the “Variation by weight (g)” value (melanoma B 16; 1.25 mg/kg IP) was “+1.0 g” and the Number of survivors (melanoma B 16; 1.25 mg/kg IP) was 0/10. The T/C % (melanoma B 16; 1.25 mg/kg IP) was 123%, the “Median day of survival” value (melanoma B 16; 2.5 mg/kg IP) was 32.6 days and the “Variation by weight (g)” value (melanoma B 16; 2.5 mg/kg IP) was “+0.1 g”. For the same compound, the Number of survivors (melanoma B 16; 2.5 mg/kg IP) was 0/10, the T/C % (melanoma B 16; 2.5 mg/kg IP) was 134% and the “Median day of survival” value (melanoma B 16; 5 mg/kg IP) was 50.0 days. The “Variation by weight” value (melanoma B 16; 5 mg/kg IP) was -0.2 g, the Number of survivors (melanoma B 16; 5 mg/kg IP) was 1/10 and the T/C % (melanoma B 16; 5 mg/kg IP) was 206%. For the same compound, the “Median day of survival” value (melanoma B 16; 10 mg/kg IP) was 11.75 days, the “Variation by weight” value (melanoma B 16; 10 mg/kg IP) was -1.9 g and the Number of survivors (melanoma B 16; 10 mg/kg IP) was 0/10. For the same compound, the T/C % (melanoma B 16; 10 mg/kg IP) was 48%.
